One experiment has as its target T1, PKA catalytic subunit (Bos taurus, UniProt P00517).
T1 construct: gene PRKACA; native catalytic subunit purified from bovine heart PKA (P5511) by column chromatography
Nature of the experiment: fluorescence polarisation competition with compound […]. The class given is binding. A general note: Fluorescence polarisation rises when a labelled molecule tumbles more slowly, as on binding a larger partner.

Experiment [1] has as its target T2, PKA (cAMP-dependent protein kinase), semi-pure tetramer (Bos taurus, UniProt P00517).
T2 construct: gene PRKACA; native, semi-pure from bovine heart; whole tetramer of two catalytic and two regulatory subunits; with cAMP-dependent protein kinase type II-alpha regulatory subunit
Nature of the experiment: fluorescence polarisation saturation binding, one-site fit. The settings on record: read-out: binding constant.

Our source for the IC50 and Kd values is publication PMC4949516 (Chemmedchem, 2016).

On to `CC1CNCCN1S(=O)(=O)c1cccc2cnccc12` (centres unmarked) [H‐7], for which the 50% inhibitory concentration (IC50) at PKA catalytic subunit is 3900 nM. For the molecule `CO[C@@H]1[C@H](N(C)CC(=O)NCCNC(=O)CCC(=O)NCCOCCOCCNC(=S)Nc2ccc(-c3c4ccc(=O)cc-4oc4cc(O)ccc34)c(C(=O)O)c2)C[C@H]2O[C@]1(C)n1c3ccccc3c3c4c(c5c6ccccc6n2c5c31)C(=O)NC4` [compound 8, 2‐(6‐Hydroxy‐3‐oxo‐3H‐xanthen‐9‐yl)‐5‐(3‐(2‐((5R,7R,8R,9S)‐8‐methoxy‐9‐methyl‐16‐oxo‐6,7,8,9,15,16‐hexahydro‐5H,14H‐17‐oxa‐4b,9a,15‐triaza‐5,9‐methanodibenzo[b,h]cyclonona[jkl]‐cyclopenta[e]‐as‐indacen‐7‐yl)‐4,9,12‐trioxo‐16,19‐dioxa‐2,5,8,13‐tetraazahenicosan‐21‐yl)thioureido)benzoic acid], the Kd in experiment [1] was 44 nM.

For orientation: IC50 means the concentration that gives 50% inhibition.
